Legend:
[1] = tested on: HEK293; conditions: Homo sapiens
Description: Activation of olfactory CNG A2A41b channel expressed in HEK293 cells assessed as effect on half maximal current

[2] = tested on: Oocyte; assay: Activation of retinal rod […] CNG A1B1 channel expressed in Xenopus oocytes assessed as effect on half maximal current; type: cell-based; conditions: Homo sapiens

Compound | K1/2 [1] [µM] | K1/2 [2] [µM]
CS(=O)(=O)CCn1c(=S)n([C@@H]2O[C@@H]3COP(=O)(O)O[C@H]3[C@H]2O)c2nc(N)[nH]c(=O)c21 | 0.11 | 
Nc1nc2c(nc(SCCS(=O)(=O)c3ccccc3)n2[C@@H]2O[C@@H]3COP(=O)(O)O[C@H]3[C@H]2O)c(=O)[nH]1 | 0.21 | 
Nc1nc2c(nc(Sc3ccc(Cl)cc3)n2[C@@H]2O[C@@H]3COP(=O)(O)O[C@H]3[C@H]2O)c(=O)n1CCS(=O)(=O)c1ccccc1 | 0.38 | 12
Nc1nc2c([nH]c(=S)n2[C@@H]2O[C@@H]3COP(=O)(O)O[C@H]3[C@H]2O)c(=O)[nH]1 | 0.18 | 14
CO[C@@H]1[C@@H]2OP(=O)(O)OC[C@H]2O[C@H]1n1cnc2c(=O)[nH]c(N)nc21 | 35 | 
Nc1nc2c(nc(Sc3ccc(Cl)cc3)n2[C@@H]2O[C@@H]3COP(=O)(O)O[C@H]3[C@H]2O)c(=O)[nH]1 | 0.073 | 1
Nc1ncnc2c1nc(Sc1ccc(Cl)cc1)n2[C@@H]1O[C@@H]2COP(=O)(O)O[C@H]2[C@H]1O | 0.55 | 
Nc1nc2c(c(=O)[nH]1)[n+]1c(n2[C@@H]2O[C@@H]3COP(=O)(O)O[C@H]3[C@H]2O)SCCC1 | 10 | 
CS(=O)(=O)CCSc1nc2c(=O)[nH]c(N)nc2n1[C@@H]1O[C@@H]2COP(=O)(O)O[C@H]2[C@H]1O | 0.37 | 
CO[C@@H]1[C@@H]2OP(=O)(O)OC[C@H]2O[C@H]1n1cnc2c(=O)n(C)c(N)nc21 | 290 | 
CO[C@@H]1[C@@H]2OP(=O)(O)OC[C@H]2O[C@H]1n1c(Sc2ccc(Cl)cc2)nc2c(N)ncnc21 | 22 | 
Nc1nc2c(ncn2[C@@H]2O[C@@H]3COP(=O)(O)O[C@H]3[C@H]2O)c(=O)[nH]1 | 1.1 | 41
Nc1nc2c(c(=O)[nH]1)n(CCS(=O)(=O)c1ccccc1)c(=S)n2[C@@H]1O[C@@H]2COP(=O)(O)O[C@H]2[C@H]1O | 0.082 | 4.1
CCCC(=O)Nc1nc2c(ncn2[C@@H]2O[C@@H]3COP(=O)(O)O[C@H]3[C@H]2O)c(=O)[nH]1 | 22 | 
CCCC(=O)O[C@@H]1[C@@H]2OP(=O)(O)OC[C@H]2O[C@H]1n1cnc2c(=O)[nH]c(N)nc21 | 88 | 

From ChEMBL document CHEMBL1148733, “Novel N7- and N1-substituted cGMP derivatives are potent activators of cyclic nucleotide-gated channels” (J Med Chem, 2007)
